Assay results reported in ChEMBL document CHEMBL3044572, “Discovery of 2-(4-cyano-3-trifluoromethylphenyl amino)-4-(4-quinazolinyloxy)-6-piperazinyl(piperidinyl)-s-triazines as potential antibacterial agents” (2012).
Converted amounts (≈) assume the structure as drawn. The source made the active and inactive calls. The rule behind the calls is not given here.

How the values were obtained:
[1] = system: Candida albicans; test: Antimicrobial activity against Candida albicans MTCC 183 by agar streak dilution method; type: functional
[2] = system: Aspergillus clavatus; test: Antimicrobial activity against Aspergillus clavatus MTCC 1323 by paper disk diffusion method; type: functional
[3] = system: Aspergillus niger; test: Antimicrobial activity against Aspergillus niger MTCC 282 by paper-disk diffusion method; type: functional
[4] = system: Aspergillus fumigatus; test: Antimicrobial activity against Aspergillus fumigatus MTCC 343 by paper-disk diffusion method; type: functional
[5] = system: Shigella flexneri; test: Antimicrobial activity against Shigella flexneri MTCC 1457 at 100 ug/ml by paper-disk diffusion method; type: functional, organism-based
[6] = system: Proteus vulgaris; test: Antimicrobial activity against Proteus vulgaris MTCC 1771 by paper disk diffusion method; type: functional
[7] = system: Salmonella typhi; test: Antimicrobial activity against Salmonella enterica subsp. enterica serovar Typhi MTCC 733 by paper disk diffusion method; type: functional
[8] = system: Klebsiella pneumoniae; test: Antimicrobial activity against Klebsiella pneumoniae MTCC 109 by paper disk diffusion method; type: functional
[9] = system: Pseudomonas aeruginosa; test: Antimicrobial activity against Pseudomonas aeruginosa MTCC 741 by paper disk diffusion method; type: functional
[10] = system: Bacillus cereus; test: Antimicrobial activity against Bacillus cereus MTCC 619 by paper disk diffusion method; type: functional
[11] = system: Escherichia coli; test: Antimicrobial activity against Escherichia coli MTCC 739 by paper disk diffusion method; type: functional
[12] = system: Staphylococcus aureus; test: Antimicrobial activity against Staphylococcus aureus MTCC 96 by paper-disk diffusion method; type: functional
[13] = system: Aspergillus clavatus; test: Antimicrobial activity against Aspergillus clavatus MTCC 1323 by agar streak dilution method; type: functional
[14] = system: Aspergillus fumigatus; test: Antimicrobial activity against Aspergillus fumigatus MTCC 343 by agar streak dilution method; type: functional
[15] = system: Aspergillus niger; test: Antimicrobial activity against Aspergillus niger MTCC 282 by agar streak dilution method; type: functional
[16] = system: Proteus vulgaris; test: Antimicrobial activity against Proteus vulgaris MTCC 1771 by agar streak dilution method; type: functional
[17] = system: Klebsiella pneumoniae; test: Antimicrobial activity against Klebsiella pneumoniae MTCC 109 by agar streak dilution method; type: functional
[18] = system: Salmonella typhi; test: Antimicrobial activity against Salmonella enterica subsp. enterica serovar Typhi MTCC 733 by agar streak dilution method; type: functional
[19] = system: Pseudomonas aeruginosa; test: Antimicrobial activity against Pseudomonas aeruginosa MTCC 741 by agar streak dilution method; type: functional
[20] = system: Staphylococcus aureus; test: Antimicrobial activity against Staphylococcus aureus MTCC 96 by agar streak dilution method; type: functional
[21] = system: Bacillus cereus; test: Antimicrobial activity against Bacillus cereus MTCC 619 by agar streak dilution method; type: functional
[22] = system: Mycobacterium tuberculosis; test: Antimicrobial activity against Mycobacterium tuberculosis H37Rv at 100 ug/ml by BACTEC MGIT method; type: functional, organism-based
[23] = system: Escherichia coli; test: Antimicrobial activity against Escherichia coli MTCC 739 by agar streak dilution method; type: functional
[24] = system: Mycobacterium tuberculosis; test: Antimicrobial activity against Mycobacterium tuberculosis H37Rv by Lowenstein and Jensen method; type: functional; conditions: for MIC: Mycobacterium tuberculosis, H37Rv
[25] = system: Mycobacterium tuberculosis; test: Antimicrobial activity against Mycobacterium tuberculosis H37Rv by BACTEC MGIT method; type: functional; conditions: Mycobacterium tuberculosis, H37Rv
[26] = system: Candida albicans; test: Antimicrobial activity against Candida albicans MTCC 183 by paper-disk diffusion method; type: functional
[27] = system: Pseudomonas aeruginosa; test: Antimicrobial activity against Pseudomonas aeruginosa MTCC 741 at 100 ug/ml by paper disk diffusion method; type: functional, organism-based
[28] = system: Shigella flexneri; test: Antimicrobial activity against Shigella flexneri MTCC 1457 by paper disk diffusion method; type: functional
[29] = system: Shigella flexneri; test: Antimicrobial activity against Shigella flexneri MTCC 1457 by agar streak dilution method; type: functional
[30] = system: Aspergillus fumigatus; test: Antimicrobial activity against Aspergillus fumigatus MTCC 343 at 100 ug/ml by paper-disk diffusion method; type: functional, organism-based

SMILES	MIC [1] [µg/mL]	inhibition zone (IZ) [2] [mm]	inhibition zone (IZ) [3] [mm]	inhibition zone (IZ) [6] [mm]	inhibition zone (IZ) [7] [mm]	inhibition zone (IZ) [8] [mm]	inhibition zone (IZ) [10] [mm]	inhibition zone (IZ) [11] [mm]	inhibition zone (IZ) [12] [mm]	MIC [13] [µg/mL]	MIC [15] [µg/mL]	MIC [16] [µg/mL]	MIC [17] [µg/mL]	MIC [18] [µg/mL]	MIC [20] [µg/mL]	MIC [21] [µg/mL]	inhibition [22]	MIC [23] [µg/mL]	inhibition (percent inhibition) [24] [%]	MIC [24] [µg/mL]	also measured
N#Cc1ccc(Nc2nc(Oc3ncnc4ccccc34)nc(N3CCC(Cc4ccccc4)CC3)n2)cc1C(F)(F)F	100 (≈ 172 µM)	20	21	23	22	23	23	21	23	100 (≈ 172 µM)	100 (≈ 172 µM)	25 (≈ 42.9 µM)	100 (≈ 172 µM)	100 (≈ 172 µM)	100 (≈ 172 µM)	100 (≈ 172 µM)	inactive	100 (≈ 172 µM)	94	500 (≈ 858 µM)	inhibition zone (IZ) [4]: 21 mm; inhibition zone (IZ) [5]: inactive; inhibition zone (IZ) [9]: 19 mm; MIC [14]: 100 µg/mL (≈ 172 µM); MIC [19]: 100 µg/mL (≈ 172 µM); MIC [25]: > 6.25 µg/mL; inhibition zone (IZ) [26]: 22 mm
CC(=O)N1CCN(c2nc(Nc3ccc(C#N)c(C(F)(F)F)c3)nc(Oc3ncnc4ccccc34)n2)CC1	50 (≈ 93.4 µM)	24	24	25	24	25	26	28	27	12.5 (≈ 23.3 µM)	25 (≈ 46.7 µM)	12.5 (≈ 23.3 µM)	12.5 (≈ 23.3 µM)	25 (≈ 46.7 µM)	12.5 (≈ 23.3 µM)	6.25 (≈ 11.7 µM)	inactive	6.25 (≈ 11.7 µM)	96	12.5 (≈ 23.3 µM)	inhibition zone (IZ) [4]: 24 mm; inhibition zone (IZ) [27]: inactive; inhibition zone (IZ) [28]: 22 mm; inhibition zone (IZ) [9]: 27 mm; MIC [14]: 25 µg/mL (≈ 46.7 µM); MIC [29]: 100 µg/mL (≈ 187 µM); MIC [19]: 12.5 µg/mL (≈ 23.3 µM); MIC [25]: > 6.25 µg/mL; inhibition zone (IZ) [26]: 24 mm
N#Cc1ccc(Nc2nc(Oc3ncnc4ccccc34)nc(N3CCN(c4ccc(F)cc4)CC3)n2)cc1C(F)(F)F	6.25 (≈ 10.6 µM)	24	25	24	27	23	26	25	28	12.5 (≈ 21.3 µM)	12.5 (≈ 21.3 µM)	12.5 (≈ 21.3 µM)	25 (≈ 42.6 µM)	6.25 (≈ 10.6 µM)	6.25 (≈ 10.6 µM)	12.5 (≈ 21.3 µM)	inactive	25 (≈ 42.6 µM)	98	12.5 (≈ 21.3 µM)	inhibition zone (IZ) [4]: 24 mm; inhibition zone (IZ) [27]: inactive; inhibition zone (IZ) [28]: 23 mm; inhibition zone (IZ) [9]: 28 mm; MIC [14]: 12.5 µg/mL (≈ 21.3 µM); MIC [29]: 50 µg/mL (≈ 85.1 µM); MIC [19]: 6.25 µg/mL (≈ 10.6 µM); MIC [25]: > 6.25 µg/mL; inhibition zone (IZ) [26]: 27 mm
N#Cc1ccc(Nc2nc(Oc3ncnc4ccccc34)nc(N3CCN(c4ccccc4Cl)CC3)n2)cc1C(F)(F)F	12.5 (≈ 20.7 µM)	22	22	24	26	23	24	22	26	50 (≈ 82.8 µM)	50 (≈ 82.8 µM)	25 (≈ 41.4 µM)	100 (≈ 166 µM)	6.25 (≈ 10.3 µM)	12.5 (≈ 20.7 µM)	50 (≈ 82.8 µM)	inactive	100 (≈ 166 µM)	97	25 (≈ 41.4 µM)	inhibition zone (IZ) [4]: 24 mm; inhibition zone (IZ) [27]: inactive; inhibition zone (IZ) [28]: 27 mm; inhibition zone (IZ) [9]: 24 mm; MIC [14]: 12.5 µg/mL (≈ 20.7 µM); MIC [29]: 12.5 µg/mL (≈ 20.7 µM); MIC [19]: 25 µg/mL (≈ 41.4 µM); MIC [25]: > 6.25 µg/mL; inhibition zone (IZ) [26]: 25 mm
N#Cc1ccc(Nc2nc(Oc3ncnc4ccccc34)nc(N3CCN(Cc4ccccc4)CC3)n2)cc1C(F)(F)F	100 (≈ 171 µM)	20	21	21	23	23	23	21	22	100 (≈ 171 µM)	100 (≈ 171 µM)	100 (≈ 171 µM)	100 (≈ 171 µM)	100 (≈ 171 µM)	50 (≈ 85.7 µM)	100 (≈ 171 µM)	inactive	100 (≈ 171 µM)	95	500 (≈ 857 µM)	inhibition zone (IZ) [27]: inactive; inhibition zone (IZ) [28]: 20 mm; MIC [29]: 100 µg/mL (≈ 171 µM); MIC [25]: > 6.25 µg/mL; inhibition zone (IZ) [30]: inactive; inhibition zone (IZ) [26]: 21 mm
